Measurements: ChEMBL document CHEMBL5316291 (J Med Chem, 2023)

Legend:
[1] = biological target: T1, Protein mono-ADP-ribosyltransferase TIPARP (Homo sapiens, UniProt Q7Z3E1); experiment: Inhibition of human recombinant N-terminal FLAG-tagged PARP7 (400 to 657 end residues) incubated for 1 hr by ELISA assay
T1 sequence (Q7Z3E1 whole entry): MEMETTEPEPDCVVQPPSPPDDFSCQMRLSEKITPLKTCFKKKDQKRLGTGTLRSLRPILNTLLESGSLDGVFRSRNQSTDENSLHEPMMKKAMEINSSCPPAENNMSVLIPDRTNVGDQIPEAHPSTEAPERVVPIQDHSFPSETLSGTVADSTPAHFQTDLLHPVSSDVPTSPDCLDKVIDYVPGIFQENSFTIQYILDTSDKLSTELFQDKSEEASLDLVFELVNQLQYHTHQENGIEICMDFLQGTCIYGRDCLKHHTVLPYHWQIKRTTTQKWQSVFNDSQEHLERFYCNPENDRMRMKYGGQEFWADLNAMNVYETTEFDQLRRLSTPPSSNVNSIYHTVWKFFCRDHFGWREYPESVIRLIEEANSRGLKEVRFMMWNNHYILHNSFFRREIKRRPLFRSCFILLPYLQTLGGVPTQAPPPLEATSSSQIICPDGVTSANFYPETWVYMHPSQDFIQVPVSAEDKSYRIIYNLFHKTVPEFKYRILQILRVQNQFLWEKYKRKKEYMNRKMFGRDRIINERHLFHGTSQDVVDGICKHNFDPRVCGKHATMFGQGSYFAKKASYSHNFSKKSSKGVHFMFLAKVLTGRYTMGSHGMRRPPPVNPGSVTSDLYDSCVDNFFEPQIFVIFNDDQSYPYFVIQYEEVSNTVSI

[2] = AUC(0 to infinity) in ICR mouse at 1 mg/kg, iv measured upto 24 hrs by LC-MS/MS analysis; type: ADME, organism-based; design: time < 24 hrs, dose 1 mg/kg, route iv; details: in vivo
[3] = biological target: T2, Poly [ADP-ribose] polymerase tankyrase-1 (Homo sapiens, UniProt O95271); experiment: Inhibition of human recombinant N-terminal GST-tagged PARP5a (1001 to 1327 end residues) expressed in baculovirus infected Sf9 cells expression system incubated for 1 hr by ELISA assay
T2 sequence (O95271 whole entry): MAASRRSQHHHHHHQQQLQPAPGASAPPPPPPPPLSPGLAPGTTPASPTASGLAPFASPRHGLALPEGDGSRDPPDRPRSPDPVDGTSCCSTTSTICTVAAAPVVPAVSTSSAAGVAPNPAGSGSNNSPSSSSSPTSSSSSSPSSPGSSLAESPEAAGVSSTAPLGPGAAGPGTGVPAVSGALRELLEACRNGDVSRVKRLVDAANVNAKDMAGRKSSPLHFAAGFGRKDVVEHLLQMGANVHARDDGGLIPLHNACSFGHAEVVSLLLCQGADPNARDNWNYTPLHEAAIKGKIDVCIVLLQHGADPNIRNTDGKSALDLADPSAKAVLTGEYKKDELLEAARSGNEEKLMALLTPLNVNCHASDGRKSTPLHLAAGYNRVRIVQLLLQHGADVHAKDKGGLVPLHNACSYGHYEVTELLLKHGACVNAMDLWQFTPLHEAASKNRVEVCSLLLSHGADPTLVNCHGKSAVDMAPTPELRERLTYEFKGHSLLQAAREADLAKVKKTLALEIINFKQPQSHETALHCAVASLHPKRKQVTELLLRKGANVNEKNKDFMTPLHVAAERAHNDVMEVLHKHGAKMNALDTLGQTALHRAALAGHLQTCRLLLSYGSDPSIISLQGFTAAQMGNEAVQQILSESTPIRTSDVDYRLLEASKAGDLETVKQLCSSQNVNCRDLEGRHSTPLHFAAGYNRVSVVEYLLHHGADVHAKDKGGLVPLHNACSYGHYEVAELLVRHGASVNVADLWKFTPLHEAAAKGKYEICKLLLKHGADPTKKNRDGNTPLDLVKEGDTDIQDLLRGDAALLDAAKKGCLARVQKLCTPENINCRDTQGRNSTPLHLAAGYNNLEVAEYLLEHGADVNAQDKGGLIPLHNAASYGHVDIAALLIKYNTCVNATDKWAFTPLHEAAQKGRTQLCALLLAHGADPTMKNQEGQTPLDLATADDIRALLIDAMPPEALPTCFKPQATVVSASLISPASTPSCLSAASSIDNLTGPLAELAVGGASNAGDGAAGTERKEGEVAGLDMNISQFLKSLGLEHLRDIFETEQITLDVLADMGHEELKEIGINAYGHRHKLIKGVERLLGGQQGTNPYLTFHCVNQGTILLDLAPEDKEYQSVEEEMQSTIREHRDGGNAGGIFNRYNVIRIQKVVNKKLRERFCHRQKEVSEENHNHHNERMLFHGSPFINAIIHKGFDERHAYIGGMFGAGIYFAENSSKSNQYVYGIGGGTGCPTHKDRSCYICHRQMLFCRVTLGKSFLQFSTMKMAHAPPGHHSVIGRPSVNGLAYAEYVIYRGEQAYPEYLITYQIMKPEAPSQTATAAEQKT

[4] = tested on: CT26; experiment: cells; details: Mus musculus, CT26, 144 h
[5] = Toxicity in BALB/c mouse implanted with mouse CT26 cells assessed as change in body weight at 25 to 100 mg/kg, po measured for 14 days; type: organism-based; details: in vivo, 336 h, dose 25-100 mg/kg, time 14 day
[6] = biological target: T3, Protein mono-ADP-ribosyltransferase TIPARP (Mus musculus) (UniProt Q8C1B2); experiment: Inhibition of PARP7 in mouse CT26 cells assessed as increase in STAT1 phosphorylation incubated for 6 hrs in presence of DMXAA by Western blotting analysis; type: cell-based; details: dose 0.44-4 µM
T3 sequence (whole entry): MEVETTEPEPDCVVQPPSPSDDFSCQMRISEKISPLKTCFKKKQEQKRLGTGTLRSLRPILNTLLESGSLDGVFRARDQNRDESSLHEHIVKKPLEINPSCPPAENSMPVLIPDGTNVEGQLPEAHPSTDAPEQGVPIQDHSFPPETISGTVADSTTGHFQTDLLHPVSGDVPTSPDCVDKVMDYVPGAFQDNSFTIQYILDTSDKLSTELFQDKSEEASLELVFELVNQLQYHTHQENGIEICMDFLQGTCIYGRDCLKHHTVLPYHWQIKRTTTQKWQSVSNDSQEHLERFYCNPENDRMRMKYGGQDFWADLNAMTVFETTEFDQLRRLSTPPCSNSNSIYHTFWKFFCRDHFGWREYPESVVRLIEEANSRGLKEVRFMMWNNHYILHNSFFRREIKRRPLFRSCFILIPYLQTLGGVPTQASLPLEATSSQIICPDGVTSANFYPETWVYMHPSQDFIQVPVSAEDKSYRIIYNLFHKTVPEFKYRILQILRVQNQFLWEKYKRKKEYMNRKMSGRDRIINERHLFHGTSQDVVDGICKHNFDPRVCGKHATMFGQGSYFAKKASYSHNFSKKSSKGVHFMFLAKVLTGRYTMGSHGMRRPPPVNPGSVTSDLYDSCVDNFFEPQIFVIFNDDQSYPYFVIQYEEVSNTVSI

IC50 [1]: 7.6 nM
AUC [2]: 591.1 ng·h/mL
IC50 [3]: 174 nM
IC50 [4]: 12800 nM
inhibition [6]: Dose-Dependent Effect
Compound: C[C@@H](CN1CC(C(=O)N2CCN(c3ncc(C(F)(F)F)cn3)CC2)C1)Nc1cn[nH]c(=O)c1C(F)(F)F
Activity [5]: Non-Toxic
